According to ChEMBL document CHEMBL3867490, “Chalcone-benzoxaborole hybrids as novel anticancer agents” (Bioorg Med Chem Lett, 2016):
pIC50: −log10 of the molar value.

What was measured:
[1] = Cytotoxicity against human MCF10A cells assessed as reduction in cell viability after 48 hrs by MTT assay; format: toxicity, cell-based, MCF-10A
[2] = Cytotoxicity against human MDA-MB-231 cells assessed as reduction in cell viability after 48 hrs by MTT assay; format: functional, cell-based; conditions: MDA-MB-231, 48 h
[3] = Selectivity ratio of IC50 for human WI38 cells to IC50 for human MDA-MB-231 cells; format: ADME, cell-based, WI-38; conditions: WI38 cells versus MDA-MB-231 cells, read-out: Ratio IC50
[4] = Cytotoxicity against human SKOV3 cells assessed as reduction in cell viability after 48 hrs by MTT assay; format: functional, cell-based; conditions: SK-OV-3, 48 h
[5] = Cytotoxicity against human WI38 cells assessed as reduction in cell viability after 48 hrs by MTT assay; format: toxicity, cell-based, WI-38
[6] = Cytotoxicity against human HCT116 cells assessed as reduction in cell viability after 48 hrs by MTT assay; format: functional, cell-based; conditions: HCT-116, 48 h
[7] = Selectivity ratio of IC50 for human MCF10A cells to IC50 for human SKOV3 cells; format: ADME, cell-based, MCF-10A; conditions: MCF10A cells versus SKOV3 cells, read-out: Ratio IC50
[8] = Selectivity ratio of IC50 for human WI38 cells to IC50 for human SKOV3 cells; format: ADME, cell-based, SK-OV-3; conditions: WI38 cells versus SKOV3 cells, read-out: Ratio IC50

SMILES | IC50 at 48 h [1] [µM] | pIC50 [2] | selectivity ratio [3] | pIC50 [4] | IC50 at 48 h [5] [µM] | pIC50 [6] | selectivity ratio [7] | selectivity ratio [8]
O=C(/C=C/c1ccc2c(c1)B(O)OC2)c1ccccc1 | 15.9 | 5.64 | 8 | 5.47 | 19.1 | 5.21 |  | 
Cc1ccc(C(=O)/C=C/c2ccc3c(c2)B(O)OC3)cc1 | 8.3 | 5.19 |  | 5.43 | 22.2 | 4.98 |  | 
O=C(/C=C/c1ccc2c(c1)B(O)OC2)c1ccc(-c2ccccc2)cc1 | 20.7 | 5.19 |  | 5.31 | 18.3 | 5.02 |  | 
O=C(/C=C/c1ccc2c(c1)B(O)OC2)c1cccc2ccccc12 | 13.4 | 5.44 |  | 5.57 | 18.8 | 5.30 |  | 
O=C(/C=C/c1ccc2c(c1)B(O)OC2)c1ccco1 | 7.4 | 5.14 |  | 4.68 | 59 | 4.62 |  | 
O=C(/C=C/c1ccc2c(c1)B(O)OC2)c1cccs1 | 13.8 | 5.34 |  | 4.98 | 26 | 4.85 |  | 
Cn1cccc1C(=O)/C=C/c1ccc2c(c1)B(O)OC2 | > 100 | < 4.00 |  | 4.03 | > 100 | < 4.00 |  | 
O=C(/C=C/c1ccc2c(c1)B(O)OC2)c1ccc([N+](=O)[O-])cc1 | 17.5 | 4.95 |  | 5.10 | 39.3 | 5.04 |  | 
O=C(/C=C/c1ccc2c(c1)B(O)OC2)c1ccc(C(F)(F)F)cc1 | 22.3 | 5.04 |  | 5.43 | 22.6 | 5.20 |  | 
CCOC(=O)c1ccc(C(=O)/C=C/c2ccc3c(c2)B(O)OC3)cc1 | 12.9 | 4.89 |  | 5.15 | 47.2 | 5.12 |  | 
O=C(/C=C/c1ccc2c(c1)B(O)OC2)c1ccc(F)cc1 | 11.8 | 5.80 |  | 5.85 | 7.6 | 5.55 |  | 
O=C(/C=C/c1ccc2c(c1)B(O)OC2)c1ccc(Cl)cc1 | 12.1 | 5.10 |  | 5.43 | 24.7 | 5.03 |  | 
O=C(/C=C/c1ccc2c(c1)B(O)OC2)c1ccc(Br)cc1 | 27.8 | 5.02 |  | 5.35 | 36.7 | 5.00 |  | 
O=C(/C=C/c1ccc2c(c1)B(O)OC2)c1ccc(I)cc1 | > 100 | 4.83 |  | 5.38 | > 100 | 4.94 | > 25 | > 25
CCc1ccc(C(=O)/C=C/c2ccc3c(c2)B(O)OC3)cc1 | 8.8 | 5.01 |  | 5.36 | 20.6 | 4.96 |  | 
CSc1ccc(C(=O)/C=C/c2ccc3c(c2)B(O)OC3)cc1 | 7.4 | 5.01 |  | 5.39 | 54.3 | 4.99 |  | 
O=C(/C=C/c1ccc2c(c1)B(O)OC2)c1ccc(OCc2ccccc2)cc1 | 23.3 | 5.28 |  | 5.22 | > 100 | 4.92 |  | 
O=C(/C=C/c1ccc2c(c1)B(O)OC2)c1ccc(O)cc1 | 24.8 | 4.59 |  | 4.89 | > 100 | 4.62 |  | 
Nc1ccc(C(=O)/C=C/c2ccc3c(c2)B(O)OC3)cc1 | 19.9 | 4.59 |  | 4.69 | 25.4 | 4.58 |  | 
O=C(/C=C/c1ccc2c(c1)B(O)OC2)c1ccccc1F | 25.4 | 5.66 |  | 5.43 | 23.6 | 5.38 |  | 
O=C(/C=C/c1ccc2c(c1)B(O)OC2)c1cccc(F)c1 | 15.8 | 5.52 |  | 5.32 | 26.7 | 5.17 |  | 

SMILES | IC50 at 48 h [1] [µM] | pIC50 [2] | selectivity ratio [3] | pIC50 [4] | IC50 at 48 h [5] [µM] | pIC50 [6] | selectivity ratio [7] | selectivity ratio [8]
Cc1cccc(C(=O)/C=C/c2ccc3c(c2)B(O)OC3)c1 | 15.9 | 5.35 |  | 5.54 | 16.7 | 5.17 |  | 
Cc1ccc(C(=O)/C=C/c2ccc3c(c2)B(O)OC3)cc1C | 4.7 | 5.28 |  | 5.72 | 22 | 5.21 |  | 
O=C(/C=C/c1ccc2c(c1)B(O)OC2)c1ccc(Cl)c(Cl)c1 | 14.9 | 5.47 |  | 5.74 | 12.5 | 5.49 |  | 
O=C(/C=C/c1ccc2c(c1)B(O)OC2)c1ccc(O)c(O)c1 | > 100 | 4.17 |  | < 4.00 | > 100 | < 4.00 |  | 
COc1ccccc1C(=O)/C=C/c1ccc2c(c1)B(O)OC2 | 9.1 | 5.51 |  | 5.59 | 21.7 | 5.30 |  | 
COc1cccc(C(=O)/C=C/c2ccc3c(c2)B(O)OC3)c1 | 7.4 | 5.68 |  | 5.59 | 14.6 | 5.30 |  | 
COCOc1ccccc1C(=O)/C=C/c1ccc2c(c1)B(O)OC2 | 11.7 | 4.99 |  | 5.19 | 27 | 4.99 |  | 
COCOc1cccc(C(=O)/C=C/c2ccc3c(c2)B(O)OC3)c1 | 48.1 | 5.35 |  | 4.93 | 33.2 | 4.88 |  | 
Nc1cccc(C(=O)/C=C/c2ccc3c(c2)B(O)OC3)c1 | 19.6 | 5.49 |  | 5.13 | 25.3 | 5.35 |  | 
O=C(/C=C/c1ccc2c(c1)B(O)OC2)c1ccccc1O | 53.7 | 4.77 |  | 4.31 | > 100 | 4.11 |  | 
O=C(/C=C/c1ccc2c(c1)B(O)OC2)c1cccc(O)c1 | 25.3 | 5.57 |  | 5.42 | 26.4 | 5.19 |  | 
COc1ccc(C(=O)/C=C/c2ccc3c(c2)B(O)OC3)cc1OC | 13.5 | 4.88 |  | 5.32 | 33.5 | 4.91 |  | 
COc1ccc(C(=O)/C=C/c2ccc3c(c2)B(O)OC3)c(OC)c1 | 12.2 | 4.95 |  | 5.21 | 86.3 | 4.79 |  | 
COc1cc(C(=O)/C=C/c2ccc3c(c2)B(O)OC3)cc(OC)c1OC | 48.5 | 4.97 |  | 5.24 | 18.5 | 5.10 |  | 
O=C(/C=C/c1ccc2c(c1)B(O)OC2)c1ccc2c(c1)OCCO2 | 11.7 | 5.10 |  | 5.14 | 30.2 | 4.99 |  | 
COc1cc(C(=O)/C=C/c2ccc3c(c2)B(O)OC3)ccc1[N+](=O)[O-] | 3.6 | 4.94 |  | 5.77 | 26 | 5.39 |  | 
COc1cc(C(=O)/C=C/c2ccc3c(c2)B(O)OC3)ccc1N | 17.6 | 4.61 |  | 5.77 | > 100 | 4.55 |  | 
O=C(O)c1ccc(C(=O)/C=C/c2ccc3c(c2)B(O)OC3)cc1 | > 100 | < 4.00 |  | < 4.00 | > 100 | < 4.00 |  | 
O=C(/C=C/c1ccc2c(c1)B(O)OC2)c1cccnc1 | 34.4 | 4.94 |  | 4.73 | 76.2 | 4.69 |  | 
COc1cccc2c1C(=O)c1c(O)c3c(c(O)c1C2=O)C[C@@](O)(C(=O)CO)C[C@@H]3O[C@H]1C[C@H](N)[C@H](O)[C@H](C)O1 [DOXORUBICIN] | 0.06 |  |  | 6.38 | 9 | 6.51 |  | 
